US20040072258A1, “Isoprenoid-dependent ras anchorage (idra) proteins” (priority 2003, published 2004)
Entries after “also recorded” stand apart in the source; their conditions may differ.

How the values were obtained:
Ras methylation = conditions: in vitro; cited from earlier work
myr-Ras = conditions: myr-Ras-transformed cells; cited from earlier work
membrane Ras = biological target: T1, membrane Ras (Homo sapiens, UniProt P01112, G12V); assay: Membrane Ras in intact EJ cells treated with FTS or GTS; assay type: cell-based, rat; conditions: without cross-linking, data not shown
T1 construct: expressed in transfected cells; host or cells: Rat-1 fibroblasts stably transformed with H-Ras (12V) (EJ cells)
Excerpt: (§1) In agreement with previous results [Kloog et al., 1999] FTS, but not GTS, reduced the amount of membrane Ras in the cells by 50-60% (data not shown). Similarly, FTS (but not GTS) induced a 90% reduction in the amount of membrane galectin-1 (FIG. 3). Thus, the magnitude of the FTS-induced galectin-1 decrease was much greater than that of Ras.

membrane galectin-1 = biological target: T2, membrane galectin-1 (Rattus norvegicus, UniProt P11762); assay: Membrane galectin-1 in intact EJ cells treated with FTS or GTS (Western blot); assay type: cell-based; conditions: for reduction in the amount of membrane galectin-1: intact EJ cells, without cross-linking, Western blot (FIG. 3)
T2 construct: endogenous in cells; host or cells: EJ cells (H-Ras (12V)-transformed Rat-1 fibroblasts)
Excerpt: FIG. 3 is a photograph of a Western blot of galectin-1 isolated from cells in the presence of a control, FTS and GTS.
Yet another aspect of the present invention is directed to a method of determining efficacious dosages of a Ras antagonist that disrupts Ras-anchor protein binding. In general, the method entails contacting cells with the antagonist in vivo or in vitro, collecting the cells following the contacting, isolating cell membranes from the collected cells, measuring decrease in anchor protein concentration per unit of cell membrane protein, and correlating the decrease with dosage of the Ras antagonist. In a preferred embodiment, a method for measuring the biological action of FTS and its analogs in vivo and in vitro is based on the suppression of the immunoassayable galectin-1 in H-Ras-transformed tumors. The basis of this assay depends upon the dose dependent loss of galectin-1 from cell membranes by FTS. Under maximal stimulation of tumor cells with FTS, 90% of galectin-1 is lost from membrane. This allows for an excellent dose response. A variation of this assay uses drug induced suppression of the anchor proteins in normal human lymphocytes isolated from patients being treated with FTS in phase 1 clinical trials. A dose of FTS or any other Ras antagonist that maximally suppresses galectin-1 (or the respective anchor protein of the antagonist) should be a dose that produces effects on other biological endpoints in vivo. When such assay is in mice and humans, therapeutically efficacious doses of Ras antagonists for humans can be determined.
as §1

[1] = test system: prenylated Rac-1 and Rho A; conditions: human melanoma cells; cited from earlier work
[2] = test system: fibroblasts transformed by ErbB2; conditions: ErbB2 acting upstream of Ras; cited from earlier work
H-Ras [3] = biological target: H-Ras (Homo sapiens, UniProt P01112, G12V); conditions: intact cells in vitro; dislodging H-Ras from its anchorage domains; cited from earlier work
[4] = test system: H-Ras-transformed Rat-I (EJ) fibroblasts; conditions: cited from earlier work
[5] = test system: cells transformed by v-Raf; conditions: v-Raf acts independently of Ras; cited from earlier work
[6] = test system: cells transformed with the farnesylated but unmethylated K-Ras 4B (12V) CVYL isoform; conditions: cited from earlier work
[7] = test system: prenylated Gβγ-subunits of heterotriimeric G-proteins; conditions: Rat-1 cell membranes; cited from earlier work
Ras-transformed cells = conditions: Aharonson et al., 1998; cited from earlier work
[8] = test system: K-Ras 4B (12V), N-Ras (13V) and N-Ras (61L); conditions: membranes of rodent fibroblasts and of human tumor cell lines; cited from earlier work
H-Ras [9] = conditions: cited from earlier work
[10] = biological target: T3, Ras-IDRA complex (34-43 kDa) (Rattus norvegicus, UniProt P11762); assay: Chemical cross-linking (DSS/DSP) of Ras-IDRA complexes in EJ cells and membranes, SDS-PAGE, Ras Ab immunoblot, purification; assay type: cell-based
T3 construct: expressed in transfected cells; host or cells: EJ cells (Rat-1 transformed with H-Ras (12V)) and their membranes; galectin-1 is endogenous
Protocol: FIG. 1 is a photograph of an electrophoretic gel illustrating use of Ras antibodies and chemical cross-linkers for identification of Ras IDRA complexes that are sensitive to the Ras inhibitor, FTS. Ras antibodies (Ab) identify Ras and Ras-IDRA complex in EJ cell membranes. Membranes corresponding to 10^6 control or FTS (50 μM)-treated EJ cells were incubated in 50 mM sodium bicarbonate buffer, pH 8.5, containing protease inhibitors and 2% DMSO (no cross-linker controls) or the indicated concentrations of the cross-linkers DSS or DSP. Samples of Triton X-100 extracts of the membranes were subjected to SDS-PAGE under non-reducing conditions followed by Western immunoblotting with Ras Ab. Open arrow corresponds to Ras (21 kDa) and closed arrow corresponds to the major Ras-putative IDRA band (34-43 kDa) detected in the blot under these conditions. This band is not detected in the blots of the non cross-linked samples or in the blots of the cross-linked samples of FTS-treated cells.
We used chemical cross-linkers in an attempt to identify the rapidly dissociating complexes of Ras and Ras-interacting proteins. […] When membranes of control and FTS-treated cells were exposed to these cross-linkers solubilized and fractionated on SDS-containing gels, Ras-immunoreactive bands were clearly detected at 34-43 kDa, 50 kDa, and 70 kDa (FIG. 1). […]

T3 sequence (P11762 2-135 limits assumed, one chain of several): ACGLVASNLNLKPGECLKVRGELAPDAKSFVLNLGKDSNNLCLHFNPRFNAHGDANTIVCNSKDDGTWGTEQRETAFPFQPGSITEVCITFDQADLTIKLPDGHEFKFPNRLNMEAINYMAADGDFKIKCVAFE
T2 sequence (P11762 whole entry): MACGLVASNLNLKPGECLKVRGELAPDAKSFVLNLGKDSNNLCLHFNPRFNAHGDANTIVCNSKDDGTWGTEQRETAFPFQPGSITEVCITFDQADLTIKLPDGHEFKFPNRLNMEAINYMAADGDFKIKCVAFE

CC(C)=CCC/C(C)=C/CC/C(C)=C/CSc1ccccc1C(=O)O [FTS, S-trans, trans-farnesylthiosalicylic acid]
inhibition of Ras methylation (Ras methylation): inhibit
effect on myr-Ras (myr-Ras): no effect
reduction of the amount of membrane Ras in the cells (membrane Ras): 50-60%
levels of endogenous galectin-1 in EJ cells (membrane galectin-1; EJ cells, in parallel with the decrease in Ras): decreased the levels
reduction in the amount of membrane galectin-1 (membrane galectin-1): 90%
reduction of the amounts of prenylated Rac-1 and Rho A [1]: did not reduce
inhibition of growth of ErbB2-transformed fibroblasts [2]: inhibits the growth
total amount of cellular Ras (H-Ras [3]): reduced the total amount of cellular Ras
growth inhibition ([4]; H-Ras-transformed Rat-I (EJ) fibroblasts): potent growth inhibitor
effective concentration range ([4]; affected specifically the membrane-bound H-Ras protein in these cells): 5 to 50 µM
inhibition of growth of v-Raf-transformed cells [5]: not the growth
inhibition of growth of K-Ras 4B (12V) CVYL-transformed cells [6]: inhibits growth
dislodging of prenylated Gβγ-subunits from membranes [7]: did not dislodge
inhibition of growth of Ras-transformed cells (Ras-transformed cells): inhibited growth
dislodging of K-Ras 4B (12V), N-Ras (13V) and N-Ras (61L) from membranes [8]: dislodges
inhibition of farnesylation of H-Ras (H-Ras [9]): did not inhibit
34-43 kDa Ras-putative IDRA cross-linked band ([10]; FTS (50 μM)-treated EJ cells or membranes, DSS or DSP, Ras Ab blot (FIG. 1)): not detected; also recorded: not present
amount of galectin-1 purified from cross-linked complexes of treated EJ cells ([10]; FTS-treated EJ cells, Western blot (FIG. 2)): reduces the amounts of anchor; also recorded: very low

CC(C)=CCC/C(C)=C/CC/C(C)=C/CC/C(C)=C/CSc1ccccc1C(=O)O [GGTS]
inhibition of growth of Ras-transformed cells (Ras-transformed cells): inhibited growth

CC(C)=CCC/C(C)=C/CSc1ccccc1C(=O)O [GTS]
reduction of the amount of membrane Ras in the cells (membrane Ras): not
reduction in the amount of membrane galectin-1 (membrane galectin-1): no effect and not
inhibition of growth of Ras-transformed cells (Ras-transformed cells): not

COC(=O)c1ccccc1SCC=C(C)CCC=C(C)CCC=C(C)C [carboxy methylester analogue]
inhibition of growth of Ras-transformed cells (Ras-transformed cells): not
